According to patent US6399759B1, “Ant proteases and methods of inhibition” (University of Georgia Research Foundation, Inc., priority 1999, dated 2002):
Where “and” joins values, the source holds several entries; their conditions need not be identical. Equal values may be shown once. Where a SMILES comes first, the peptide text is derived from it. [ ]: non-standard residue; d: D form. The star is where a group is joined. Sta = CC(C)C[C@H](N)[C@@H](O)CC(=O)O; Isovaleryl = CC(C)CC(=O)*

Tests used:
Soli C1 [1] = biological target: T1, Soli C1 (Solenopsis invicta, UniProt Q7SIG2); assay type: biochemical
T1 construct: Fourth instar larvae were extracted in a 1:10 (weight/volume) ratio of 20 mM Tris-HCl pH 7.4; from tissue; host or cells: whole Solenopsis invicta 4th instar larvae (buffer extract, acetone precipitation, Q Sepharose peak III, Mono Q, Superdex 75)

Soli C2 [2] = assay: Inhibition of amidolytic activity by synthetic inhibitors; assay type: biochemical, Solenopsis invicta
Soli E1 [3] = assay: as above; assay type: biochemical, Solenopsis invicta
Soli E2 [4] = assay: as above; assay type: biochemical, Solenopsis invicta
Soli C1 [5] = biological target: T1, Soli C1; assay: Inhibition of amidolytic activity by naturally occurring protease inhibitors; assay type: biochemical; conditions: 10 minutes incubation at 25° C. in 50 mM Tris-HCl, 100 mM NaCl, pH 7.4
Description: (§1) Enzyme Assay—Generally, the amidolytic activities of each proteinase were measured with the substrates MeOSuc-Ala-Ala-Pro-Val-pNA (SEQ ID NO:8) and N-Suc-Ala-Ala-Pro-Phe-pNA (SEQ ID NO:7) in 0.05 M Tris-HCl and 100 mM NaCl pH 7.4 (assay buffer). Release of the pNA group was assayed by monitoring the optical density of the test solution at […]. Enzyme inhibition assays by protein inhibitors were conducted in the same assay buffer using an inhibitor concentration ranging from 0.02-50 nM with a 10 minute preincubation time and with the final enzyme concentration being 1.0 nM. All kinetic studies with substrates and inhibitors were performed at the optimum pH of the individual proteinases, utilizing the following buffers: 150 mM NaCl, 50 mM Tris-HCl pH 8.0 (E1); 150 mM NaCl, 50 mM CHES pH 9.5 (E2 and C2); and 150 mM NaCl, 50 mM CAPS pH 10.0 (C1).

Soli C2 [6] = assay: as above; assay type: biochemical, Solenopsis invicta; conditions: 10 minutes incubation at 25° C. in 50 mM Tris-HCl, 100 mM NaCl, pH 7.4
Description: as §1

Soli E1 [7] = assay: as above; assay type: biochemical, Solenopsis invicta; conditions: 10 minutes incubation at 25° C. in 50 mM Tris-HCl, 100 mM NaCl, pH 7.4
Description: as §1

Soli E2 [8] = assay: as above; assay type: biochemical, Solenopsis invicta; conditions: 10 minutes incubation at 25° C. in 50 mM Tris-HCl, 100 mM NaCl, pH 7.4
Description: as §1

[9] = pH optimum of the purified proteinases; assay type: biochemical, Solenopsis invicta; conditions: Vmax of substrate hydrolysis, room temperature, pH range 3.0 to 12.0
Description: (§2) pH analysis—The determination of pH optimum and stability for each enzyme was performed using a Universal Phosphate Buffer system, which is a buffer made from boric acid and phosphoric acid titrated with sodium hydroxide such that the ionic strength is the same at any pH. Briefly, equal volumes of a solution of 80 mM boric acid and a solution of 80 mM phosphoric acid were combined, and 200 mM sodium hydroxide was added to bring the mixture to the desired pH.

[10] = assay type: physicochemical, Solenopsis invicta
Description: as §2

[11] = Isoelectrofocusing (IEF) of the purified proteinases; assay type: physicochemical, Solenopsis invicta; conditions: IEF gels pH 3-10, Serva Test Mix 9 standards
Description: IEF—Isoelectrofocusing of the purified proteinases was performed on precast isoelectric focusing gels (pH 3-10) obtained under the trade designation […] PRECOTES (Cresent Chemical Co., Inc., Hauppauge, N.Y.). Sample preparations and isoelectrofocusing were carried out following instructions provided by Pharmacia and using the Pharmacia Flatbed Electrophoresis Unit.
IEF—Based on Serva Test Mix 9 IEF standards (Cresent Chemical Co., Inc.), the proteinases migrated to the following pI's; Soli E1, 10.0; Soli E2 (3 isoforms), 6.9, 8.3, 8.5; Soli C1, 4.7; and Soli C2, 4.2.

T1 sequence (Q7SIG2 whole entry): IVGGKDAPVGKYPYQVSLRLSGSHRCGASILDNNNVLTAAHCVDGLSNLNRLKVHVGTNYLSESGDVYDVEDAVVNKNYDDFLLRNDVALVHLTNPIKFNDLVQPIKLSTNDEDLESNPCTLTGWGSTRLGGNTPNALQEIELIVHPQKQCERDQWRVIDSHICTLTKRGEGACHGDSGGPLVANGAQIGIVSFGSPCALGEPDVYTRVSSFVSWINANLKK

Row | Compound | Inhibition of Soli C1 by class-specific proteinase inhibitors (in words) (Soli C1 [1]) | Inhibition of Soli C2 by class-specific proteinase inhibitors (in words) (Soli C2 [2]) | Inhibition of Soli E1 by class-specific proteinase inhibitors (in words) (Soli E1 [3]) | pH optimum [9] | Stability of enzyme activity [10] | pI [11] | also measured
1 | CC(C)C[C@H](NC(=O)[C@H]1O[C@@H]1C(=O)O)C(=O)NCCCCN=C(N)N (relative stereo) [E-64, trans-epoxysuccinyl-L-leucylamido-(4-guanidino)butane] | not | not | not | – | – | – | –
2 | O=c1oc(Cl)c(Cl)c2ccccc12 [DCIC, 3,4-dichloroisocoumarin] | not Soli C1 or Soli C2, except after long incubation periods | not Soli C1 or Soli C2, except after long incubation periods | inhibited | – | – | – | Inhibition of Soli E2 by class-specific proteinase inhibitors (in words) (Soli E2 [4]): inhibited
3 | O=C(O)CN(CCN(CC(=O)O)CC(=O)O)CC(=O)O [EDTA, ethylenediaminetetraacetate·2H2O] | not | not | not | – | – | – | –
4 | CC(C)CC(=O)N[C@H](C(=O)N[C@H](C(=O)N[C@@H](CC(C)C)[C@@H](O)CC(=O)N[C@@H](C)C(=O)N[C@@H](CC(C)C)[C@@H](O)CC(=O)O)C(C)C)C(C)C [Pepstatin] (Isovaleryl-VV[Sta]A[Sta]-OH) | not | not | not | – | – | – | –
5 | Canadian Goose OM Domain III: Domain III of Canadian goose ovomucoid | – | – | – | – | – | – | IC50 (Soli C1 [5]): > 50 nM; IC50 (Soli C2 [6]): > 50 nM; IC50 (Soli E1 [7]): 1.51 nM; IC50 (Soli E2 [8]): 27.3 nM
6 | Domestic Goose OM Domain III: Domain III of domestic goose ovomucoid | – | – | – | – | – | – | IC50 (Soli C1 [5]): > 50 nM; IC50 (Soli C2 [6]): > 50 nM; IC50 (Soli E1 [7]): > 50 nM; IC50 (Soli E2 [8]): 5.58 nM
7 | Soli C1: chymotrypsin-like serine proteinase, about 25 kDa, from S. invicta 4th instar larvae (IVGGDAPVGKYPYQVSLRLSG) | – | – | – | 9.0-10.5 | stable for several days | 4.7 | –
8 | Soli C2: chymotrypsin-like serine proteinase, about 28 kDa, from S. invicta 4th instar larvae (IVGGEPAPGGAYPFIVSLQV) | – | – | – | 9.0 | lost their activities fairly quickly over all pHs | 4.2 | pH at which most stable [10]: 8.0
9 | Soli E1: elastase-like serine proteinase, about 23 kDa, from S. invicta 4th instar larvae (IVGGQPATPGEFPHQGSLRV) | – | – | – | 8.0 | lost their activities fairly quickly over all pHs | 10.0 | pH at which most stable [10]: 7.0
10 | Soli E2: elastase-like serine proteinase, about 24 kDa, from S. invicta 4th instar larvae (IVGGQDAAPGEFPHQGSLRLRGSHI) | – | – | – | 8.5-10 | lost their activities fairly quickly over all pHs | 6.9 and 8.3 and 8.5 | pH at which most stable [10]: 8.5
11 | α1-PI: α-1-Proteinase Inhibitor | – | – | – | – | – | – | IC50 (Soli C1 [5]): 0.338 nM; IC50 (Soli C2 [6]): 0.271 nM; IC50 (Soli E1 [7]): 1.2 nM; IC50 (Soli E2 [8]): 0.604 nM
